Experimental data reported in patent US20220040133A1.

What was measured:
Human H460 NSCLC cells = assay: Oral efficacy in human H460 NSCLC xenografts in mice; format: in vivo; conditions: H460 xenograft, CD1-Nu/Nu mice; oral gavage 100 mg/kg on day 8, 15, 22, 29; vs 5% dextrose or untreated; FIG. 1
Experimental: Human H460 NSCLC cells were obtained from American Type Cell Culture (ATCC) (catalog no. HTB-177, Manassas, Va.). These cells tested negative for viral contamination using the Mouse Antibody Production (MAP) test, performed by Charles River Labs Molecular Division, upon the receipt of the tumor cells from ATCC. The tumor cells were maintained at 37° C. in a humidified 5% CO2 atmosphere in T225 tissue culture flasks containing 50 mL of Roswell Park Memorial Institute (RPMI)-1640 solution with 10% Fetal Bovine Serum (FBS) and 2 mM L-glutamine. Cells were split at a ratio of 1:10 every 2-3 days by trypsinization and resuspended in fresh medium in a new flask. Cells were harvested for experiments in the same way at 70-90% confluency.
CD1-Nu/Nu female mice, ˜4-6 weeks old were obtained from Charles River Laboratories. Mice were housed 5 to a cage in a micro-isolator room in the Department of Animal Laboratory Research of New York State University (SUNY) at Stony Brook. Light-dark cycles were 12 h each daily, with light from 7 a.m. to 7 p.m. […]
An acclimation period of 7 days was allowed between the arrival of the animal at the study site before tumor inoculation and experimentation. […] Tumor dimensions (length and width) were measured daily before, during and after treatment (using Vernier calipers) and the tumor volume was calculated using the prolate ellipsoid formula: (length×width^2)/2. […]

[1] = system: BxPC3 pancreatic cancer cells; assay: Oral efficacy in human BxPC3 pancreatic cancer xenografts in mice; format: in vivo; parameters: dose or concentration left out as unconfirmed; conditions: BxPC3 xenograft, CD-1 nude mice; oral dose for 4 weeks; FIG. 2
Experimental: CD1-Nu/Nu female mice, ˜4-6 weeks old were obtained from Charles River Laboratories. Mice were housed 5 to a cage in a micro-isolator room in the Department of Animal Laboratory Research of New York State University (SUNY) at Stony Brook. Light-dark cycles were 12 h each daily, with light from 7 a.m. to 7 p.m. Food (Purina Rodent Chow) and water (distilled sterile-filtered water, pH 7) were provided ad libitum. Protocols and procedures were according to the rules of and approved by the SUNY Institutional Animal Care and Use Committee (IACUC).
An acclimation period of 7 days was allowed between the arrival of the animal at the study site before tumor inoculation and experimentation. Mice were inoculated subcutaneously (SC) in the right flank with 2×10^6 human H460 NSCLC or BxPC3 pancreatic cancer cells that were suspended in 0.1 mL of Dulbeco's Phosphate Buffered Salt (PBS) solution using a 1 cc syringe with a 27⅝ gauge needle. Tumor dimensions (length and width) were measured daily before, during and after treatment (using Vernier calipers) and the tumor volume was calculated using the prolate ellipsoid formula: (length×width^2)/2. Treatment with test or control articles began 8 days post tumor cell implantation when the tumor was approximately 300 mm^3.
A similar study was conducted in CD-1 nude mice (n=9) inoculated with 2×10^6 BxPC-3 cells. […]

MFL2 cells = assay: Survival of C57Bl/6 mice with MFL2 syngeneic AML tumors; format: in vivo
Experimental: C57Bl/6 mice were injected into their tail veins with 1 million MFL2 cells (Pardee, T. S. et al., Experimental Hematology, 2011, 39, 473-485) on Day 0 and beginning on Day 7, upon confirmation of engraftment by bioluminescence imaging, were treated by gavage with CPI-613 (300 mg/kg daily except weekends of a 50 mg/mL solution in 0.05 N NaOH in 5% dextrose, adjusted to pH 7.5-8 with 4% glacial acetic acid; 1 animal for the chloroquine experiment), intraperitoneally (IP) with chloroquine (200 μL (ca. 100 mg/kg) daily except weekends of a 10 mg/mL solution in PBS; Chlr; 3 animals), orally with metformin (1 mg/mL in the drinking water with ad lib access), or with a combination of CPI-613 (300 mg/kg daily gavage as above) and either chloroquine (200 μL daily IP as above; 4 animals) or metformin (1 mg/mL ad lib in drinking water as above) and followed for survival. Control animals (1 animal in chloroquine experiment) received both oral and IP vehicles. P value was determined by log rank test.

Baf3-p210 cells = assay: Survival of Balb/c mice with Baf3-p210 syngeneic ALL tumors; format: in vivo; conditions: CPI-613 250 mg/kg gavage once daily combined with doxorubicin 3 mg/kg IP for three days; compared to doxorubicin alone; FIG. 4
Experimental: Balb/c mice were injected into their tail veins with 1 million Baf3-p210 cells on Day 0 and beginning on Day 3, upon confirmation of engraftment by bioluminescence imaging, were treated with saline (control), doxorubicin (3 mg/kg IP in 200 μL PBS), or doxorubicin (3 mg/kg IP in 200 μL PBS) plus CPI-613 (250 mg/kg gavage of a 25 mg/mL solution of CPI-613 in 0.05 N NaOH in 5% dextrose, adjusted to pH 7.5-8 with 4% glacial acetic acid). and followed for survival. Doxorubicin was administered once daily for three consecutive days, and CPI-613 was administered once daily until death. P value was determined by log rank test.

[2] = mouse, in vivo
[3] = after IV dosing; Pardee et al. 2014; cited from earlier work
[4] = system: metastatic pancreatic adenocarcinoma; conditions: combined with modified FOLFIRINOX, cited from earlier work
[5] = system: myelodysplastic syndrome (MDS), acute myeloid leukemia (AML), Burkitt lymphoma, and cutaneous T-cell lymphoma (CTCL); conditions: IV, days 1 and 4 of weeks 1, 2, 3 of a 4 week cycle, 840 mg/m^2 to 2940 mg/m^2 daily; cited from earlier work
[6] = system: relapsed or refractory T-cell lymphoma; conditions: IV, days 1-4, 8, 11, 15, 18 of a 4 week cycle, 2000 mg/m^2 to 2750 mg/m^2, combined with bendamustine 90 mg/m^2; cited from earlier work

O=C(O)CCCCC(CCSCc1ccccc1)SCc1ccccc1 (stereo not drawn)
tumor growth (tumor volume) (Human H460 NSCLC cells): grew much more slowly
tumor growth (tumor volume) [1]: especially pronounced
survival (MFL2 cells; CPI-613 300 mg/kg gavage combined with chloroquine ca. 100 mg/kg IP daily except weekends, FIG. 3A): significantly prolongs survival
survival (MFL2 cells; CPI-613 300 mg/kg gavage combined with metformin 1 mg/mL in drinking water, FIG. 3B): significantly prolongs survival
survival (MFL2 cells; CPI-613 300 mg/kg gavage daily except weekends from Day 7, FIGS. 3A, 3B): significantly prolongs survival
survival (Baf3-p210 cells): significantly prolongs survival
oral bioavailability (in words) [2]: orally bioavailable
half-life [3]: 1 to 2 h
objective response ([4]; IV 500 mg/m^2 on days 1 and 3 of a two week cycle): 11 of 18
maximum tolerated dose ([4]; IV, days 1 and 3 of a two week cycle): 500 mg/m^2
efficacy in patients [5]: showed efficacy
efficacy in patients [6]: showed efficacy
